Data from US5624923A, “Tricyclic diazepine vasopressin antagonists and oxytocin antagonists” (priority 1995, dated 1997).

Columns and labels:
Vasopressin V2 = Vasopressin V2 Antagonist Activity in Conscious Hydrated Rats; type: in vivo, rat; settings: AVP 0.4 μg/kg i.p.
Description: Vasopressin V2 Antagonist Activity in Conscious Hydrated Rats
Conscious hydrated rats are treated with compounds under study from 0.1 to 100 mg/kg orally or vehicle. Two to four rats are used for each compound. One hour later, arginine vasopressin (AVP, antidiuretic hormore, ADH) dissolved in peanut oil is administered at 0.4 μg/kg intraperitoneally. Two rats in each test would not receive arginine vasopressin but only the vehicle (peanut oil) to serve as water-loading control. Twenty minutes later each rat is given 30 mL/kg of deionized water orally by gavage and is placed individually in a metabolic cage equipped with a funnel and a graduated glass cylinder to collect urine for four hours. Urine volume is measured and osmolality analyzed by use of a Fiske One-Ten osmometer (Fiske Assoc., Norwood, Mass., USA). Urinary sodium, potassium, and chloride are analyzed by use of ion-specific electrodes in a Beckman E3 (Electrolyte 3) Analyzer.

Vasopressin V1 = Vasopressin V1 Antagonist Activity in Conscious Rats (vasopressin vasopressor response); type: in vivo, rat; settings: 10 mg/kg i.v.
Description: Vasopressin V1 Antagonist Activity in Conscious Rats
Conscious rats are restrained in a supine position with elastic tape. The area at the base of the tail is locally anesthetized by subcutaneous infiltration with 2% procaine (0.2 ml). Using aseptic technique the ventral caudal tail artery is isolated and a cannula made of PE 10 and 20 (heat-fused) tubing is passed into the lower abdominal aorta. The cannula is secured, heparinized (1000 i.u./cc), sealed and the wound closed with one or two stitches of Dexon 4-0. The caudal vein is also cannulated in the same manner for intravenous drug administration. The duration of the surgery is approximately 5 minutes. Additional local anesthesia (2% procaine or lidocaine) is provided as needed.
The animals are placed in plastic restraining cages in an upright position. The cannula is attached to a Statham P23Db pressure transducer and pulsatile blood pressure is recorded. […] The vasopressin injections are repeated 30,60,90,120,180,240 and 300 min. later. Percentage of antagonism by the compound is calculated using the pre-drug vasopressin vasopressor response as 100%.

oxytocin receptors = target: T1, oxytocin receptors (Rattus norvegicus, UniProt P70536); experiment: Oxytocin Receptor Binding; settings: for IC50: 1.0 nM [3H]oxytocin
T1 construct: The uteri are dissected out, cleaned of fat and connective tissues; from tissue; host or cells: uterus of DES-treated female Sprague-Dawley rats
T1 sequence (P70536 1-388): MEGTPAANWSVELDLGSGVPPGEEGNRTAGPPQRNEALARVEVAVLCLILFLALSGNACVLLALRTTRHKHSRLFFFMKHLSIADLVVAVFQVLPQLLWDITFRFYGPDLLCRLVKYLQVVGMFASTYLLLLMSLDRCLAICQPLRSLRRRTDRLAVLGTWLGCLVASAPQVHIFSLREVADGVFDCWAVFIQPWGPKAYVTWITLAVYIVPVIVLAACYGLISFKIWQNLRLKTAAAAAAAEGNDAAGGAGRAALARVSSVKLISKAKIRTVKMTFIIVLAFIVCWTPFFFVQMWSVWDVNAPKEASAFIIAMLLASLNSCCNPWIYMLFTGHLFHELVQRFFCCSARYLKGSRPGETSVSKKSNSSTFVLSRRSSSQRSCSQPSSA
Description: Oxytocin Receptor Binding
Female Sprague-Dawley rats weighing approximately 200-250 g are injected intramuscularly (i.m.) with 0.3 mg/kg of body weight of diethylstilbestrol (DES). The rats are sacrificed 18 hours later under pentobarbital anesthesia. The uteri are dissected out, cleaned of fat and connective tissues and rinsed in 50 ml of normal saline. The tissue pooled from six rats is homogenized in 50 ml of […] Tris.HCl, containing 0.5 mM dithiothreitol and 1.0 mM EDTA, adjusted to pH 7.4, using a polytron at setting 6 with three passes of 10 sec each. The homogenate is passed through two (2) layers of cheesecloth and the filtrate centrifuged at 1000× g for 10 min. The clear supernatant is removed and recentrifuged at 165,000× g for 30 min. The resulting pellet containing the oxytocin receptors is resuspended in 50.0 mM Tris.HCl containing 5.0 mM MgCl2 at pH 7.4, to give a protein concentration of 2.5 mg/ml of tissue suspension. This preparation is used in subsequent binding assays with [^3 H]Oxytocin.
Binding of 3,5-[^3 H]Oxytocin ([^3 H]OT) to its receptors is done in microtiter plates using [^3 H]OT, at various concentrations, in an assay buffer of 50.0 mM Tris.HCl, pH 7.4 and containing 5.0 mM MgCl2, and a mixture of protease inhibitors: BSA, 0.1 mg; aprotinin, 1.0 mg; 1,10-phenanthroline, 2.0 mg; […], 10.0 mg; and PMSF, 0.3 mg per 100 ml of buffer solution. Non-specific binding is determined in the presence of 1.0 uM unlabeled OT. The binding reaction is terminated after 60 min , at 22° C. by rapid filtration through glass fiber filters using a Brandel® cell harvester (Biomedical Research and Development Laboratories, Inc., Gaithersburg, Md.). Competition experiments are conducted at equilibrium using 1.0 nM [^3 H]OT and varying the concentration of the displacing agents. The concentrations of agent displacing 50% of [^3 H]OT at its sites (IC50) are calculated by a computer assisted LUNDON-2 program (LUNDON SOFTWARE INC., Ohio, USA).

Molecule	IC50 (oxytocin receptors) [nM]	inhibition at 10 µM (oxytocin receptors; dose 10 μM, [3H]oxytocin) [%]	further results
CCOC(=O)c1ccc2n1Cc1ccccc1N(C(=O)c1ccc([N+](=O)[O-])cc1Cl)C2 [Example 443, Ethyl 10,11-dihydro-10-(2-chloro-4-nitrobenzoyl)-5H-pyrrolo[2,1-c][1,4]benzodiazepine-3-carboxylate]	–	70	–
Nc1ccc(C(=O)N2Cc3cccn3Cc3ccccc32)c(Cl)c1 [Example 416, 10,11-Dihydro-10-(2-chloro-4-aminobenzoyl)-5H-pyrrolo[2,1-c][1,4]benzodiazepine]	7400	44.6	–
Cc1ccc(F)cc1C(=O)Nc1ccc(C(=O)O)cc1 [Example 417, 4-[(5-Fluoro-2-methylbenzoyl)amino]benzoic acid]	–	21	–
Cc1c(F)cccc1C(=O)Nc1ccc(C(=O)O)c(Cl)c1 [Example 420]	–	16	–
O=C(Nc1ccc(C(=O)O)c(Cl)c1)c1cccc(F)c1 [Example 441, 4-[[3-fluorobenzoyl]amino]-2-chloro-benzoic acid]	–	–	inhibition at 1 µM (oxytocin receptors; dose 1 μM, [3H]oxytocin): 22%
N-[4-(4H-Pyrazolo[5,1-c][1,4]benzo-diazepin-5(10H)-ylcarbonyl)phenyl]-2-methoxybenzeneacetamide [Example 215]	570	–	Osmolality (Vasopressin V2; 30 mg/kg orally): 1520 mOsm/kg; Urine Volume (Vasopressin V2; 30 mg/kg orally): 0.7 ml/4 hrs; % Inhibition at 10 μM (oxytocin receptors; dose 10 μM, [3H]oxytocin): 74%

Second part, led by results:

IC50 (oxytocin receptors) [nM]	inhibition at 10 µM (oxytocin receptors; dose 10 μM, [3H]oxytocin) [%]	Molecule	further results
33	93	Cc1ccc(F)cc1C(=O)Nc1ccc(C(=O)N2Cc3cccn3Cc3ccccc32)cc1 [Example 465, N-[4-(5H-Pyrrolo[2,1-c][1,4]benzodiazepin-10(11H)-ylcarbonyl)phenyl]-5-fluoro-2-methylbenzamide]	Osmolality (Vasopressin V2; 10 mg/kg orally): 361 mOsm/kg; Urine Volume (Vasopressin V2; 10 mg/kg orally): 21.8 ml/4 hrs; Max. % Inhibition (Vasopressin V1): 85%; Time (of max. % inhibition) (Vasopressin V1): 90 min
4000	86	CCOC(=O)c1ccc2n1Cc1ccccc1N(C(=O)c1ccc(NC(=O)c3ccc(Cl)cc3Cl)cc1)C2 [Example 596, Ethyl 10-[4-[(2,4-dichlorobenzoyl)amino]benzoyl]-10,11-dihydro-5H-pyrrolo[2,1-c][1,4]benzodiazepine-3-carboxylate]	Osmolality (Vasopressin V2; 10 mg/kg orally): 1347 mOsm/kg; Urine Volume (Vasopressin V2; 10 mg/kg orally): 2.8 ml/4 hrs
2900	75	COc1cc(C(=O)N2Cc3cccn3Cc3ccccc32)ccc1[N+](=O)[O-] [Example 455, 10,11-Dihydro-10-(3-methoxy-4-nitrobenzoyl)-5H-pyrrolo[2,1-c][1,4]benzodiazepine]	–
2400	71	CCOC(=O)c1ccc2n1Cc1ccccc1N(C(=O)c1ccc(N)cc1)C2 [Example 464, ethyl 10,11-dihydro-10-(4-aminobenzoyl)-5H-pyrrolo[2,1-c][1,4]benzodiazepine-3-carboxylate]	–
–	14	O=C(c1ccc([N+](=O)[O-])cc1)N1Cc2ccc(C(=O)C(Cl)(Cl)Cl)n2Cc2ccccc21 [Example 449, 10,11-dihydro-10-(4-nitrobenzoyl)-[3-(trichloroacetyl)]-5H-pyrazolo[2,1-c]-[1,4]benzodiazepine]	–
–	11	Cc1cc(C(=O)N2Cc3ccc(C(=O)C(Cl)(Cl)Cl)n3Cc3ccccc32)ccc1[N+](=O)[O-] [Example 448]	–
–	22	O=C(c1ccc([N+](=O)[O-])cc1Cl)N1Cc2ccc(C(=O)C(Cl)(Cl)Cl)n2Cc2ccccc21 [Example 450, 10,11-dihydro-10-(2-chloro-4-nitro-benzoyl)-[3-(trichloroacetyl)]-5H-pyrrolo[2,1-c][1,4]benzodiazepine]	–
–	43	O=C(c1ccc([N+](=O)[O-])cc1)N1Cc2ccc(C(=O)C(F)(F)F)n2Cc2ccccc21 [Example 451, 10,11-Dihydro-10-(4-nitrobenzoyl)-[3-(trifluoroacetyl)]-5H-pyrrolo[2,1-c][1,4]benzodiazepine]	–
–	14	Nc1ccc(C(=O)N2Cc3ccc(C(=O)C(F)(F)F)n3Cc3ccccc32)cc1 [Example 462, 10,11-dihydro-10-(4-aminobenzoyl)[3-(trifluoroacetyl)]-5H-pyrrolo[2,1-c]-[1,4]benzodiazepine]	–
